Here are results for one compound from ChEMBL document CHEMBL5725252, “Spirocyclic dihydro-thiazine and dihydro-oxazine BACE inhibitors, and compositions and uses thereof” (2016).

Assay [1] deals with T1, Beta-secretase 1 (Homo sapiens, UniProt P56817). Kind of assay: AlphaScreen Assay: BACE1 activity can be assessed in an AlphaScreen® assay. Compounds to be assessed (e.g. compounds as described in the above examples) are serially diluted 1:4 in DMSO, then plated by diluting 10 μL of compound with 40 μl of assay buffer (1×PBS, 0.01% Tween-20, pH 7.0, 0.05% BSA). The diluted compound is transferred (4 μL per well) to a […] well assay plate and 4 μL of BACE1 enzyme (20 mg/mL) is added and incubated for 15 minutes. This assay uses a probe that is a BACE1 binding sight ligand linked to biotin, which can be displaced by test compound dependent on compound binding affinity. This of biotinylated probe (4 μL) is added and incubated for 1 hour, followed with 4 μL of donor and acceptor bead mixture and incubated for 2 hours. The fluorescent signal is read on a plate reader and the value as a function of compound concentration is used to determine the IC50. For orientation: Alpha assays give light when donor and acceptor beads are brought close together.
T1 sequence (P56817 whole entry): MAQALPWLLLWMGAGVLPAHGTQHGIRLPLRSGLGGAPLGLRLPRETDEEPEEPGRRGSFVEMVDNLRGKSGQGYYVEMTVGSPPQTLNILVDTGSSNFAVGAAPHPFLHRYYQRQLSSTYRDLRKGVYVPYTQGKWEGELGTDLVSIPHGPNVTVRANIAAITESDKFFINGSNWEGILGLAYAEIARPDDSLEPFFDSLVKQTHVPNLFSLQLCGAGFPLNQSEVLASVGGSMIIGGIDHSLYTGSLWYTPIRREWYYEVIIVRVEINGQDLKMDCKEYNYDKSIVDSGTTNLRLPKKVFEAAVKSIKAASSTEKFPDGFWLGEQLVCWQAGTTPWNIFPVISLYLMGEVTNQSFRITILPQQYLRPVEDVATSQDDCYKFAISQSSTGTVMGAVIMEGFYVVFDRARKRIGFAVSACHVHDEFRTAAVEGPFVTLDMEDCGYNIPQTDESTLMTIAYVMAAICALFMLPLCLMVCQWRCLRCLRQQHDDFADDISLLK

Assay [2] has as its target T1, Beta-secretase 1. Nature of the assay: FP Assay: Compounds are also assessed for BACE1 and Cathepsin D activity using an FP Assay. Compounds to be assessed (e.g. compounds as described in the above examples) are serially diluted 1:3 with DMSO and each concentration point is transferred to a 96 well plate, 6 uL per well, followed by addition of 194 uL of assay buffer (100 mM sodium acetate, pH 4.5 with 0.001% Tween-20). A 10 uL compound sample from this plate is transferred to a well of a 384 well plate and combined with 10 uL per well of BACE1 enzyme (0.3 nM in assay buffer) or Cathepsin D enzyme (1.8 nM in assay buffer) and the plate is incubated at room temperature for 30 minutes.

Molecules are shown by their SMILES.

With `C[C@@]1(c2cc(/C=C/c3ccc(F)cc3)ccc2F)CC2(CCC(F)(F)CC2)OC(N)=N1`, the IC50 is 1.96 µM on Beta-secretase 1 [1] and 13.1 µM on Beta-secretase 1 [2].

Usually IC50 stands for the midpoint of a concentration-inhibition curve.
